Key:
[1] = tested on: Heterozygous mice with maternal deficiency of Ube3A (Ube3am−/p+); assay: Clasping test (ataxia) in a mouse model of Angelman syndrome; format: in vivo; conditions: AS mice, CBD 20 mg/kg i.p. daily, chronic treatment (30 days), at 10 weeks of age, vs AS mice treated with vehicle; FIG. 1
Method: (§1) Heterozygous mice with maternal deficiency of Ube3A (Ube3am−/p+) and wild type (Ube3am+/p+) were purchased from The Jackson Laboratory (Jackson code: B6.12957-Ube3a tm1Alb/J) and maintained in a C57BL/6 background.
(§2) Drugs were dissolved in 1:1:18 ethanol:cremophor: 0.9% saline, for intraperitoneal (i.p.) administration. […]
Clasping: The clasping test assesses ataxia in mice. Mice were suspended by the base of the tail and their behaviours were recorded for 30 seconds. The time for which the mice clasped their hind limbs was recorded. The time was then scored as follows: 4, 15-30 s, 3, 10-15 s, 2, 5-10 s, 1, 0-5 s and 0, 0 s.

[2] = tested on: Heterozygous mice with maternal deficiency of Ube3A (Ube3am−/p+); assay: Rotarod test (balance and motor coordination) in a mouse model of Angelman syndrome; format: in vivo; conditions: AS mice, CBD 20 mg/kg i.p. daily, chronic treatment (30 days), vs AS mice treated with vehicle; FIG. 2
Method: as §1, §2
Rotarod: The rotarod test assesses balance and motor coordination of mice. Mice have been measured for the time (in seconds) of equilibrium before falling on a rotary cylinder by a magnet that, activated from the fall of the mouse on the plate, allows to record the time of permanence on the cylinder. […] The animals were analysed by 2 separate tests at 1-h interval in the same day.

[3] = tested on: Heterozygous mice with maternal deficiency of Ube3A (Ube3am−/p+); assay: Tail suspension test (depressive-like behaviour) in a mouse model of Angelman syndrome; format: in vivo; conditions: AS mice, CBD 20 mg/kg i.p. daily, vs AS mice treated with vehicle; FIG. 4
Method: as §1
Drugs were dissolved in 1:1:18 ethanol:cremophor: 0.9% saline, for intraperitoneal (i.p.) administration. Drug treatment was performed daily for 35 days.
Tail suspension: The tail suspension test assesses depressive-like behaviour in mice. Mice were individually suspended by the tail on a horizontal bar (50 cm from floor) using adhesive tape placed approximately 4 cm from the tip of the tail. The duration of immobility was recorded in seconds over a period of 6 minutes by a time recorder. Immobility time was defined as the absence of escape-oriented behaviour.

[4] = background statement; cited from earlier work

Row | Compound | clasping duration [1] | latency to fall (rotarod) [2] | duration of immobility time (tail suspension) [3] | side effects [4]
1 | C=C(C)[C@@H]1CCC(C)=C[C@H]1c1c(O)cc(CCCCC)cc1O [CBD, Cannabidiol] | significantly reduced clasping duration | significantly reduced latency to fall | significantly reduced the duration of immobility time | –
2 | Cc1c(C(=O)NN2CCCCC2)nn(-c2ccc(Cl)cc2Cl)c1-c1ccc(Cl)cc1 [rimonabant] | – | – | – | serious side effects which limit its use, such as suicide ideation

From US12616705B2, “Use of cannabinoids in the treatment of Angelman syndrome” (JAZZ PHARMACEUTICALS RESEARCH UK LIMITED, priority 2016, dated 2026)
